Test results taken from a melting point compilation (Tetko et al.; mined from patent text by program, amines drawn as free bases though some values may be those of a salt).

melting point	Compound
175 °C	CN(C(=O)CN(C(=O)CNC(=O)Nc1cccc(S(N)(=O)=O)c1)c1ccccc1)c1ccccc1
174 to 176 °C	O=C(CCCN1CCOCC1)c1ccc2c(c1)C(=O)c1cc(C(=O)CCCN3CCOCC3)ccc1-2
> 230 °C	CCc1nc(O)c(I)c(Cl)n1
140 to 141 °C	O=CNN(C1=NCCS1)c1ccccc1
208 to 211 °C	CC(C)(Cc1cc2nc(Cl)ccc2n1S(=O)(=O)c1ccccc1)C(=O)O
139 to 142 °C	COC(=O)c1ccc(OCC2CN(c3ccc(N)cc3)C(=O)O2)cc1 (centres undefined)
68 to 70 °C	CCOC(=O)c1cc(CCCOCCCCCCNCC(O)c2cc(Cl)c(N)c(Cl)c2)ccn1 (centres undefined)
215 to 216 °C	CC(=O)OCC(=O)C1(O)C(C)CC2C3CC(C)C4=CC(=O)C=CC4(C)C3=CCC21C (centres undefined)
196 to 198 °C	C=CC(=O)N1C(C)(C)CC(=C2CC(C)(C)N(C(=O)C=C)C(C)(C)C2)CC1(C)C
147 to 149 °C	CCc1nc2ccc(Cl)cc2c(=O)n1CCCn1ccnc1
253 to 255 °C	CC(=O)C(Cl)=NNc1ccccc1S(C)(=O)=O
253 to 255 °C	CC(=O)Nc1cc(O)ccc1-c1cc(=O)c2ccccc2o1
270 to 272 °C	Cc1ccc(C(=O)Nc2cccc(C(F)(F)F)c2)cc1-c1ccc2cnncc2c1
236 to 237 °C	Cn1ncc(/C=C/C(=O)O)c1-c1cccnc1
96 to 97 °C	CCCC(O)c1cc(-c2ccc(F)cc2)oc1C (centres undefined)
207 to 208 °C	CCOC(=O)Cc1csc(NS(C)(=O)=O)n1
115 to 117 °C	Cc1occc1S(=O)(=O)C(C)(Cc1ccc(OCCN2CCCCC2)cc1)C(=O)NO (centres undefined)
248 to 250 °C	NC1=C(N=O)C(=O)N2CCN=C2N1Cc1ccc(F)cc1
75.5 to 76.5 °C	Cc1cc(Cl)c(C(=O)c2ccccc2)c(Cl)c1
81.5 to 82.5 °C	CCCCC/C(=C\C=C\C(=O)NCCCCc1cccnc1)c1ccc(OC)cc1
129 to 130 °C	CCCCC1c2cc(NC(=O)CC(C)(C)C)c(C)c(C)c2OC1(C)C (centres undefined)
130 to 131 °C	c1csc(-c2nc3cc(COc4ccc(CCCCn5ccnc5)cc4)ccc3o2)c1
223 °C	OCC1OC(n2c(Cl)nc3cc(Cl)c(Cl)cc32)C(F)C1O (centres undefined)
290 to 292 °C	Cn1cc(-c2nnn[nH]2)c(=O)c2ccc(F)cc21
> 300 °C	COc1cc2nc(N)nc(-c3ccc(O)c(C(=O)O)c3)c2cc1OC

melting point	Compound
134 to 135 °C	COC(=O)c1ccc(-c2nc(-c3ccc(C(C)C)cc3)cs2)cc1
141 to 142 °C	CCOC(=O)c1cc(-c2csc(C)n2)[nH]n1
161 to 162 °C	Cc1cc(OC(F)F)nc(NC(=O)NS(=O)(=O)c2cccnc2Cl)n1
221 to 223 °C	COc1ccc(NC(=O)C(=O)c2c3n(c4ccccc24)CCNCC3)cc1Cl
206 to 208 °C	CS(=O)(=O)c1ccc(-c2[nH]c(Cl)cc2-c2ccc(F)cc2)cc1
> 320 °C	COc1ccc(C=Cc2nc3c([nH]2)c(=O)n(C)c(=O)n3C)cc1OC
173 to 175 °C	O=C(O)c1cn(-c2cccc(OC(F)(F)F)c2)cn1
98.2 °C	CNc1cccc2c1OC1(CC1)C2=O
126 to 130 °C	C[C@@H](Nc1nnc(-c2ccccc2)c2occc12)C1CCCCC1
188 °C	CC(Nc1ccc(Oc2ccc(O)cc2)cc1)C(=O)O (centres undefined)
125 to 127 °C	CCOCOC1CCC2(C)C(=CCC3C2CCC2(C)C3CC3OC4(CCC(C)CO4)C(C)C32)C1 (centres undefined)
230 to 235 °C	NC1(c2ccccc2)C(=O)Nc2ccc(Cl)cc21 (centres undefined)
100 to 104 °C	CCOC(=O)/C=C(C)/C(F)=C/C=C(C)/C=C/c1c(C)cc(C)c(Cl)c1C
> 300 °C	Cn1c(CCCO)nc2cccnc21
114 to 116 °C	CC(C)(C)OC(=O)NCCNC(=O)c1nc(Cl)sc1-c1ccccc1
104 to 105 °C	Cc1cc(C)c(Cc2ccc(C(C)C)cc2)c(OCC(=O)O)c1
92 to 94 °C	C=CC1(CC(=O)O)CC(C)(C)CC(C)(C)C1
130 to 132 °C	COC(=O)CC(=O)C[C@@H]1[C@@H](N2C(=O)c3ccccc3C2=O)C(=O)N1C(=O)C(=O)OC
208 to 210 °C	NC1=CC(=O)C2CCCCC2C1 (centres undefined)
96 to 99 °C	Cc1cc(N(C)C)nc2ccc(C=O)cc12
49 to 50 °C	COc1cccc2c1oc1ccccc12
78 to 81 °C	CCCC(=O)NC1CCc2ccccc2C1 (centres undefined)
51.5 to 53 °C	CCOC(=O)c1c(C(F)(F)F)nc(C(F)(F)Cl)c(C(=O)OC)c1NC(C)(C)C
246 to 248 °C	CNS(=O)(=O)c1c[nH]c(-c2ccc(Cl)cc2)n1
127 to 131 °C	CS(=O)(=O)c1cccc(-n2c(=O)c(CCCc3ccncc3)cc3cccnc32)c1

melting point	Compound
205 to 207 °C	CSC(C#N)=C1CCN(c2ccc(N3C[C@H](CNC(C)=O)OC3=O)cc2F)CC1
54 to 57 °C	Oc1ccc(CC2CO2)cc1 (racemic)
122 to 124 °C	COc1cc2c(C)csc2c(Cl)c1Cl
174 to 176 °C	COC(=O)C1=C(Cl)C(=NO)CC(c2ccc(Cl)c(OC)c2F)N1 (centres undefined)
85 to 87 °C	CC1(C)c2ccccc2C(C)(C)C1(S)CCO
104 to 105 °C	CCNC(C)CN1CCc2c(c(=O)oc3ccccc23)C1 (centres undefined)
171 °C	CC(=O)c1ccc(NC(=O)c2ccc(C3OCC(SC(C)C(O)(Cn4cncn4)c4ccc(F)cc4F)CO3)cc2)cc1 (centres undefined)
130 °C	CCCc1nc(C)n2nc(SC)nc2c1Cc1ccc([N+](=O)[O-])cc1
150 to 152 °C	OCCNc1cc(N2CCCC2)nc(N2CCCC2)n1
106 °C	O=C(c1ccccc1)n1c(SC(F)(F)F)cc(-c2ccc(F)cc2)c1-c1ccc(F)cc1
169 to 170 °C	COc1ccc(CN2C(=O)C3(COc4cc5c(cc43)CCO5)c3c2ccc2ncccc32)cc1 (centres undefined)
96 to 98 °C	Oc1ccc(F)nc1I
126 to 128 °C	CCCNC(=O)c1cnc2ccc(C)cn2c1=O
89 to 91 °C	COc1ccnc(CCc2ccnc(N)c2N)c1
140 to 150 °C	CCc1cccc(CNC[C@@H](O)[C@H](Cc2cc(F)cc(F)c2)NC(=O)CC2CCCC(=O)C2)c1 (some centres undefined)
111 to 113 °C	Clc1ccc2nncc(Cl)c2c1
133 to 135 °C	CCOC(=O)C1=C(C)NC(COC(C)=O)=C(C(=O)OCC)C1c1cccc([N+](=O)[O-])c1 (centres undefined)
125 to 126 °C	COC(=O)c1ccc2c(c1)NCc1ccccc1O2
192 to 195 °C	CC(C)(C)NC(=O)N1CCn2c(Cl)c(-c3cccc(C#N)c3)c(C(N)=O)c2C1
209 to 210 °C	O=C(C=Cc1ccc(CNCC2CCCC2)cc1)Nc1ccc(-c2ccc(Cl)cc2)cc1
141 to 143 °C	Cc1ccc(-c2ccc3c(c2)C=C(C(=O)N[C@H]2CC[C@H](CN(C)C4CCOCC4)CC2)CO3)cc1
129 to 131 °C	CC(=O)OC1CN=C(c2ccccc2Cl)c2ccccc2N(C)C1 (centres undefined)
128 to 130 °C	CCOC(=O)C(S)(C#N)C1=NC(C)Cc2cc(OC)c(OC)cc21 (centres undefined)
245 to 250 °C	Cc1c(F)cccc1C(=O)Nc1ccc(C(=O)N2Cc3ccnn3Cc3ccccc32)cc1
153 to 154 °C	Cc1c(CCCO)c2c(c(C)c1NC(=O)NCCO)C(c1ccc(C(C)C)cc1)CO2 (centres undefined)

melting point	Compound
184 to 185 °C	COc1ccc(N(C)C(=O)CN2C(=O)c3ccccc3C2=O)c(OC)c1COc1cccc2ccc(C)nc12
101 to 103 °C	Cc1cc(I)cc(CO)c1N
177 to 179 °C	CCn1nc2c(N)nc3c(c2c1CCC1CCCCC1)CCCC3
212 to 213 °C	COc1ncnc2c1C(c1cccc([N+](=O)[O-])c1)C(C(=O)OC(C)C)=C(C)N2 (centres undefined)
160 °C	Cc1cc(C)cc(S(=O)(=O)n2c(CCCCC(=O)O)cc3nc(Cl)ccc32)c1
115 to 116 °C	NC(=O)Cc1cc(Cl)ccc1[N+](=O)[O-]
181 to 182 °C	Cc1cc(F)ccc1-c1nc(NC2CCCCC2)nc2c1CCC(=O)N2c1ccccc1F
178 to 180 °C	C=C(C)CN(CC)c1nc(N2CCN(C(=O)NC(c3ccccc3)c3ccccc3)CC2)nc(N(CC)CC(=C)C)n1
228 °C	Cn1c(=O)c(C#N)c(N2CCN(C(=O)c3ccco3)CC2)c2cc(Cl)ccc21
257 to 258 °C	O=C1Nc2ccccc2C2=NC(CN3CCN(c4ccccc4)CC3)CN12 (centres undefined)
101 to 103 °C	O=C1C=C(Oc2ccc(C3CCCC3)cc2)C(O)O1 (centres undefined)
185 to 187 °C	Cc1ccc(N=c2ccn3ccccc3c2)cc1C
140 to 142 °C	Cn1cccc1CCNc1nc(-c2cccnc2)nc2ccccc12
81 to 82 °C	CCOC(=O)c1cc2c(nc1CCl)CCCCC2
114 to 115 °C	Cc1c(C)c2c(c(C)c1OCc1ccccc1)C(=O)C(C)(C)O2
156 to 158 °C	CCCc1c(OCc2cccc(CC(=O)O)c2)ccc(C(C)=O)c1O
153 to 156 °C	O=c1c2ccccc2oc2cc(OCCO)c(Cl)cc12
214 to 216 °C	O=C1CCc2c(-c3ccncc3)sc(-c3cccnc3)c21
156 to 158 °C	CNC(=NCCCSCn1cncc1C)NC#N
148 to 150 °C	COc1ccc(-c2cn(C)cc(-c3cccc(C(F)(F)F)c3)c2=O)cc1OC
182 to 184 °C	CCOC(=O)C1Cc2ccc(Cl)cc2NC1=O (centres undefined)
115 to 125 °C	CCCCCCCCCCCCCCCCCCOCC(COP(=O)([O-])OCC[N+](C)(C)C)Oc1ccon1 (racemic)
147 to 148 °C	COc1ccc2c(N=O)c(O)ccc2c1
129 to 132 °C	CCCCCCCCOc1cc(-c2cccc([N+](=O)[O-])c2)c(OCC(=O)O)c(-c2cccc([N+](=O)[O-])c2)c1

Compound	melting point
Cc1cccc(-n2c(=O)[nH]c3ccc(F)cc3c2=O)c1	278 to 279 °C
CCC(Cl)C(=O)NC(C)=O (centres undefined)	51 to 53 °C
Nc1cccc(-c2cncc(OC[C@@H]3CCN3)c2)c1	85 to 87 °C
CC(C)(CS(C)(=O)=O)NC(=O)c1c(NC(=O)c2cc(C(F)(F)F)nn2-c2ncccc2Cl)c(Cl)cc2cn[nH]c12	173 to 176 °C
NC(=S)c1ncn2c1[C@@H]1CCN1C(=O)c1ccccc1-2	227 to 230 °C
